Test results from patent US20240092784A1, “CONDENSED HETEROCYCLIC COMPOUND” (NISSAN CHEMICAL CORPORATION, priority 2020, published 2024).

The compounds below were run against human SPR (Homo sapiens (Human), UniProt P35270) (assay: Evaluation Example 2: Measurement of human SPR inhibitory activity (seven concentrations, sepiapterin absorbance at 420 nm)). Conditions: Evaluation Example 2, seven concentrations 0.14 nM to 100 nM, 240 minutes at room temperature, read-out: IC50.
Assay type: biochemical
Protocol: Human SPR was prepared as described below. The full-length human SPR (1-261) cDNA was purchased from Eurofins Genomics as an artificially synthesized plasmid containing a DNA sequence optimized for the E. coli expression system so that the sequence of the expressed protein after transcription and translation matches the sequence described in UniprotKB (P35270).
Linearized insert and vector were prepared by PCR using primers designed for amplification of human SPR cDNA and primers designed to contain the thrombin recognition sequence of pET28a (Novagen) and a polyhistidine tag. Cloning was performed using In-Fusion (registered trademark) HD Cloning Kit (TaKaRa) to thereby construct a human SPR expression plasmid. The resultant human SPR expression plasmid was transformed into BL21 (DE3) competent cells (INVITROGEN).
The cells were inoculated into LB medium (1% triptone, 0.5% yeast extract, 1% sodium chloride) containing […] of kanamycin, and then precultured at 37° C. overnight. The precultured cells were inoculated into TB medium (1.2% triptone, 2.4% yeast extract, 9.4% dipotassium hydrogen phosphate, 2.2% potassium dihydrogen phosphate, 0.8% glycerin) containing […] of kanamycin, and the cultured at 37° C., to thereby induce SPR expression with 0.5 mM IPTG for four hours. After the induction, the cells were collected by centrifugation at 6,000 G for 30 minutes and washed with PBS, and the washing was discarded. The washed cells were suspended in buffer solution A (20 mM MES, pH 6.5, 100 mM sodium chloride, 1 mM DTT, 5 mM imidazole). Subsequently, the cell suspension was subjected to ultrasonic treatment to thereby homogenize the cells. The cell homogenate was clarified by centrifugation at 30,000 G for 60 minutes and then filtered with a […]. The filtrate was allowed to pass through HisTrapFF 5 mL column (GE Healthcare). The resin was washed with buffer A, and then gradient elution was performed with buffer B (20 mM MES, pH 6.5, 100 mM sodium chloride, 1 mM DTT, 500 mM imidazole). Thrombin was added to a fraction containing the SPR protein, and the mixture was dialyzed in buffer A overnight, to thereby cleave the tag. After removal of the thrombin by with Benzamidine Sepharose 4 FF (GE Healthcare), the resultant product was allowed to pass through the HisTrapFF 5 mL column, to thereby remove the tag, followed by concentration with Amicon Ultra 10,000 NMWL (Merck Millipore). The concentrate was purified by gel filtration using HiLoad 16/60 Superdex 75 pg (GE Healthcare) equilibrated with buffer C (20 mM MES, pH 6.5, 100 mM sodium chloride, 1 mM DTT). The fraction containing SPR protein was concentrated and then cryopreserved at −80° C.
Human SPR inhibitory activity was measured by using a 384-well low adsorption clear plate (Greiner) with buffer D containing 100 mM Tris-HCl (pH 7.5) (Thermo Fisher Scientific) and 0.01% bovine serum albumin (Sigma). A compound was diluted with DMSO to achieve seven different final concentrations; i.e., 0.14 nM, 0.41 nM, 1.23 nM, 3.7 nM, 11.1 nM, 33 nM, and 100 nM. A 1.5 μL aliquot of the compound solution prepared with DMSO was diluted with 250 μL of buffer D, and the thus-diluted solution was dispensed into the 384-well plate at 20 μL/well. Thereafter, human SPR was diluted with buffer D to 150 ng/mL and then dispensed into the 384-well plate at 20 μL/well. Subsequently, 40 μL of ultrapure water containing 120 μM sepiapterin (produced by the method described in L-Sepiapterin, Heterocycles, 2008, 76, 1329-1335 and WO 2013/168693) and 160 μM NADPH (Nacalai) was added to each well, and then reaction was initiated. The reaction mixture was incubated at room temperature for 240 minutes. Thereafter, in order to determine the amount of sepiapterin, the absorbance at 420 nm was measured by applying the 384-well plate to EnSpire multimode plate reader (Perkin Elmer). The percent inhibition (%) of human SPR by the test compound was calculated by the following formula.

human SPR, sequence (P35270 whole entry): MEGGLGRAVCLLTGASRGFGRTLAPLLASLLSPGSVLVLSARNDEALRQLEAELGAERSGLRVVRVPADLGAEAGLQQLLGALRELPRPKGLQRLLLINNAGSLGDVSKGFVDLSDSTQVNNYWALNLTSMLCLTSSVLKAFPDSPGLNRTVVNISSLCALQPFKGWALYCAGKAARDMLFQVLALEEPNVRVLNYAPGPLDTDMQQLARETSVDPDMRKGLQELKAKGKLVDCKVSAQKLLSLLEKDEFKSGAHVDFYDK

| Structure (SMILES) | IC50 [nM] |
| --- | --- |
| Cc1nn2c(O)c(C(=O)NC3CC3)c(=O)n(CC(C)C)c2c1/C=C/C(=O)N1C[C@H](C)OC[C@@H]1C [Synthesis Example 645, N-Cyclopropyl-3-((E)-3-((2S,5S)-2,5-dimethylmorpholino)-3-oxoprop-1-en-1-yl)-7-hydroxy-4-isobutyl-2-methyl-5-oxo-4,5-dihydropyrazolo[1,5-a]pyrimidine-6-carboxamide] | 0.8 |
| C[C@@H]1COCCN1C(=O)/C=C/c1cnn2c(O)c(C(=O)NC3CC3)c(=O)n(CC3(F)CC3)c12 [Synthesis Example 380, (R,E)-N-Cyclopropyl-4-((1-fluorocyclopropyl)methyl)-7-hydroxy-3-(3-(3-methylmorpholino)-3-oxoprop-1-en-1-yl)-5-oxo-4,5-dihydropyrazolo[1,5-a]pyrimidine-6-carboxamide] | 0.76 |
| CC(C)Cn1c(=O)c(C(=O)NC2CC2)c(O)n2ncc(/C=C/C(=O)N3CCC(F)CC3)c12 [compound 463, (E)-N-Cyclopropyl-3-(3-(4-fluoropiperidin-1-yl)-3-oxoprop-1-en-1-yl)-7-hydroxy-4-isobutyl-5-oxo-4,5-dihydropyrazolo[1,5-a]pyrimidine-6-carboxamide] | 0.97 |
| CC(C)(C)Cn1c(=O)c(C(=O)NC2CC2)c(O)n2nc(Nc3cnc(C(=O)N4CCOCC4)cn3)cc12 [Synthesis Example 335, N-Cyclopropyl-7-hydroxy-2-((5-(morpholine-4-carbonyl)pyrazin-2-yl)amino)-4-neopentyl-5-oxo-4,5-dihydropyrazolo[1,5-a]pyrimidine-6-carboxamide] | 0.73 |
| CC1(Cn2c(=O)c(C(=O)NC3CC3)c(O)n3ncc(/C=C/C(=O)N4CCOCC4)c23)CC1 [Synthesis Example 366, (E)-N-Cyclopropyl-7-hydroxy-4-((1-methylcyclopropyl)methyl)-3-(3-morpholino-3-oxoprop-1-en-1-yl)-5-oxo-4,5-dihydropyrazolo[1,5-a]pyrimidine-6-carboxamide] | 0.75 |
| Cc1nn2c(O)c(C(=O)NC3CC3)c(=O)n(CC(C)C)c2c1/C=C/C(=O)N1CCc2cc(Br)ccc21 [Synthesis Example 670, (E)-3-(3-(5-Bromoindolin-1-yl)-3-oxoprop-1-en-1-yl)-N-cyclopropyl-7-hydroxy-4-isobutyl-2-methyl-5-oxo-4,5-dihydropyrazolo[1,5-a]pyrimidine-6-carboxamide] | 11.5 |
| Cc1nn2c(O)c(C(=O)NC3CC3)c(=O)n(CC(C)C)c2c1/C=C/C(=O)N1CCC[C@@H]1C(F)F [Synthesis Example 632, (R,E)-N-Cyclopropyl-3-(3-(2-(difluoromethyl)pyrrolidin-1-yl)-3-oxoprop-1-en-1-yl)-7-hydroxy-4-isobutyl-2-methyl-5-oxo-4,5-dihydropyrazolo[1,5-a]pyrimidine-6-carboxamide] | 1.51 |
| COC[C@@H]1CCN(C(=O)/C=C/c2c(C)nn3c(O)c(C(=O)NC4CC4)c(=O)n(CC(C)C)c23)C1 [Synthesis Example 621, (R,E)-N-Cyclopropyl-7-hydroxy-4-isobutyl-3-(3-(3-(methoxymethyl)pyrrolidin-1-yl)-3-oxoprop-1-en-1-yl)-2-methyl-5-oxo-4,5-dihydropyrazolo[1,5-a]pyrimidine-6-carboxamide] | 1.42 |
| COC(C)(C)Cn1c(=O)c(C(=O)NC2CC2)c(O)n2ncc(/C=C/C(=O)N3CCOCC3)c12 [Synthesis Example 365, (E)-N-Cyclopropyl-7-hydroxy-4-(2-methoxy-2-methylpropyl)-3-(3-morpholino-3-oxoprop-1-en-1-yl)-5-oxo-4,5-dihydropyrazolo[1,5-a]pyrimidine-6-carboxamide] | 0.65 |
| O=C(NC1CC1)c1c(O)n2ncc(/C=C/C(=O)N3C[C@@H]4C[C@H]3CO4)c2n(CC2(F)CC2)c1=O [Synthesis Example 375] | 0.65 |
| CC(C)(C)Cn1c(=O)c(C(=O)NC2CC2)c(O)n2nc3c(c12)COC(=O)N3 [Synthesis Example 400, N-Cyclopropyl-8-hydroxy-5-neopentyl-2,6-dioxo-1,2,5,6-tetrahydro-4H-pyrimido[1′,2′:1,5]pyrazolo[3,4-d][1,3]oxazine-7-carboxamide] | 0.7 |
| Cc1nn2c(O)c(C(=O)NC3CC3)c(=O)n(CC(C)C)c2c1/C=C/C(=O)N(C)CC#N [Synthesis Example 681, (E)-3-(3-((Cyanomethyl)(methyl)amino)-3-oxoprop-1-en-1-yl)-N-cyclopropyl-7-hydroxy-4-isobutyl-2-methyl-5-oxo-4,5-dihydropyrazolo[1,5-a]pyrimidine-6-carboxamide] | 0.64 |
| Cn1ccnc1Nc1cc2n(CC(C)(C)C)c(=O)c(C(=O)NC3CC3)c(O)n2n1 [Synthesis Example 357, N-Cyclopropyl-7-hydroxy-2-((1-methyl-1H-imidazol-2-yl)amino)-4-neopentyl-5-oxo-4,5-dihydropyrazolo[1,5-a]pyrimidine-6-carboxamide] | 1.5 |
| CC(Cn1c(=O)c(C(=O)NC2CC2)c(O)n2ncc(/C=C/C(=O)N3CCOCC3)c12)C(F)(F)F (single isomer, unassigned) [Synthesis Example 388, (E)-N-Cyclopropyl-7-hydroxy-3-(3-morpholino-3-oxoprop-1-en-1-yl)-5-oxo-4-(3,3,3-trifluoro-2-methylpropyl)-4,5-dihydropyrazolo[1,5-a]pyrimidine-6-carboxamide] | 1.53 |
| O=C(NC1CC1)c1c(O)n2ncc(/C=C/C(=O)N3CCOCC3)c2n(CC2(F)CC2)c1=O [Synthesis Example 364, (E)-N-Cyclopropyl-4-((1-fluorocyclopropyl)methyl)-7-hydroxy-3-(3-morpholino-3-oxoprop-1-en-1-yl)-5-oxo-4,5-dihydropyrazolo[1,5-a]pyrimidine-6-carboxamide] | 0.63 |
| Cc1nn2c(O)c(C(=O)NC3CC3)c(=O)n(CC(C)C)c2c1/C=C/C(=O)N1CCC[C@H]1c1ccccc1 [Synthesis Example 674, (S,E)-N-Cyclopropyl-7-hydroxy-4-isobutyl-2-methyl-5-oxo-3-(3-oxo-3-(2-phenylpyrrolidin-1-yl)prop-1-en-1-yl)-4,5-dihydropyrazolo[1,5-a]pyrimidine-6-carboxamide] | 1.36 |
| CC(C)Cn1c(=O)c(C(=O)NC2CC2)c(O)n2ncc(/C=C/C(=O)N3CCN(C4CCC4)CC3)c12 [compound 472, (E)-3-(3-(4-Cyclobutylpiperazin-1-yl)-3-oxoprop-1-en-1-yl)-N-cyclopropyl-7-hydroxy-4-isobutyl-5-oxo-4,5-dihydropyrazolo[1,5-a]pyrimidine-6-carboxamide] | 1.12 |

Same assay, conditions: sepiapterin absorbance, Table 41, read-out: concentration at 50% inhibition of human SPR (IC50)

| Structure (SMILES) | IC50 [nM] |
| --- | --- |
| COC[C@@H]1COCCN1C(=O)/C=C/c1c(C)nn2c(O)c(C(=O)NC3CC3)c(=O)n(CC(C)C)c12 [Synthesis Example 682, (R,E)-N-Cyclopropyl-7-hydroxy-4-isobutyl-3-(3-(3-(methoxymethyl)morpholino)-3-oxoprop-1-en-1-yl)-2-methyl-5-oxo-4,5-dihydropyrazolo[1,5-a]pyrimidine-6-carboxamide] | 0.85 |
| CC(C)Cn1c(=O)c(C(=O)NC2CC2)c(O)n2ncc(/C=C/C(=O)N3CC[C@@H](C(C)(C)O)C3)c12 [Synthesis Example 743, (R,E)-N-Cyclopropyl-7-hydroxy-3-(3-(3-(2-hydroxypropan-2-yl)pyrrolidin-1-yl)-3-oxoprop-1-en-1-yl)-4-isobutyl-5-oxo-4,5-dihydropyrazolo[1,5-a]pyrimidine-6-carboxamide] | 1.33 |
